From patent US10501482B2, “Compounds for treating spinal muscular atrophy” (Hoffmann-La Roche Inc., priority 2013, dated 2019)
Where a name gives a salt, the structure may show the parent alone.

How the values were obtained:
SMN protein = SMN protein assay (HTRF) in cultured SMA patient fibroblast cells; format: cell-based; settings: SMA Type 1 human fibroblasts GM03813, 48 hours; for EC1.5x SMN protein (EC1.5x concentration for SMN protein expression): 7-point concentration curve, concentration giving 1.5 times SMN protein vs vehicle; for max. fold increase (maximum fold increase of SMN protein): 7-point concentration data, fold vs vehicle control
Procedure: The SMN HTRF (homogeneous time resolved fluorescence) assay is used to quantify the level of SMN protein in SMA patient fibroblast cells treated with test compounds.
Cells are thawed and cultured in DMEM-10% FBS for 72 hours. Cells are trypsinized, counted and re-suspended to a concentration of 25,000 cells/mL in DMEM-10% FBS. The cell suspensions are plated at 5,000 cells per well in a 96 well microtiter plate and incubated for 3 to 5 hours. […] 1 μL of test compound solution is transferred to cell-containing wells and cells are incubated for 48 hours in a cell culture incubator (37° C., 5% CO2, 100% relative humidity). Triplicate samples are set up for each test compound concentration. After 48 hours, the supernatant is removed from the wells and 25 μL of the RIPA lysis buffer, containing protease inhibitors, is added to the wells and incubated with shaking at room temperature for 1 hour. 25 μL of the diluent is added and then 35 μL of the resulting lysate is transferred to a 384-well plate, where each well contains 5 μL of the antibody solution (1:100 dilution of anti-SMN d2 and anti-SMN kryptate in SMN reconstitution buffer). The plate is centrifuged for 1 minute to bring the solution to the bottom of the wells, then incubated overnight at room temperature. Fluorescence for each well of the plate at 665 nm and 620 nm is measured on an EnVision multilabel plate reader (Perkin-Elmer).
The normalized fluorescence signal is calculated for each sample, Blank and vehicle control well by dividing the signal at 665 nm by the signal at 620 nm. Normalizing the signal accounts for possible fluorescence quenching due to the matrix effect of the lysate. The ΔF value (a measurement of SMN protein abundance as a percent value) for each sample well is calculated by subtracting the normalized average fluorescence for the Blank control wells from the normalized fluorescence for each sample well, then dividing this difference by the normalized average fluorescence for the Blank control wells and multiplying the resulting value by 100. The ΔF value for each sample well represents the SMN protein abundance from test compound-treated samples. The ΔF value for each sample well is divided by the ΔF value for the vehicle control wells to calculate the fold increase in SMN protein abundance relative to the vehicle control. Table 3 provides EC1.5x concentrations for SMN protein expression that was obtained from the 7-point concentration data generated according to the above procedure for particular compounds of the present invention.
Table 4 provides the maximum fold increase of SMN protein that was obtained from the 7-point concentration data generated according to the above procedure for particular compounds of the present invention

[1] = system: full length SMN2 minigene mRNA (FL SMN2mini) in HEK293H cells stably transfected with the SMN2-A minigene construct; test: SMN2 minigene mRNA splicing RT-qPCR assay in cultured cells; format: cell-based; settings: Homo sapiens, HEK293-H, 24 hours, 7-point concentration curve, concentration giving 1.5-fold FL SMN2mini mRNA vs vehicle, read-out: EC1.5x minigene (EC1.5x concentration for production of full length SMN2 minigene mRNA)
Procedure: The reverse transcription-quantitative PCR-based (RT-qPCR) assay is used to quantify the level of the full length SMN2 minigene (referred to herein by the term “FL SMN2mini”) mRNA containing SMN2 exon 7 in a HEK293H cell line stably transfected with said minigene and treated with a test compound.
The SMN2-A minigene construct was prepared as described in International Patent Application WO2009/151546A1 page 145 paragraph [00400] to page 147 paragraph [00412](incl. FIG. 1 and FIG. 3 therein).
HEK293H cells stably transfected with the SMN2-A minigene construct (10,000 cells/well) are seeded in 200 μL of cell culture medium (DMEM plus 10% FBS, with 200 μg/mL hygromycin) in 96-well flat-bottom plates and the plate is immediately swirled to ensure proper dispersal of cells and the formation of an even monolayer of cells. Cells are allowed to attach for 6 hours. […] A solution of test compound (1 μL, 200× in DMSO) is added to each cell-containing well and the plate is incubated for 24 hours in a cell culture incubator (37° C., 5% CO2, 100% relative humidity). 2 replicates are prepared for each test compound concentration. The cells are then lysed in the Cells-To-Ct lysis buffer and the lysate is stored at −80° C.
Full length SMN2-A minigene and GAPDH mRNA are quantified using the primers and probes referenced in Table 1. Primer SMN Forward A (SEQ ID NO.1) hybridizes to a nucleotide sequence in exon 7 (nucleotide 22 to nucleotide 40), primer SMN Reverse A (SEQ ID NO.2) hybridizes to a nucleotide sequence in the coding sequence of Firefly luciferase, SMN Probe A (SEQ ID NO.3) hybridizes to a nucleotide sequence in exon 7 (nucleotide 50 to nucleotide 54) and exon 8 (nucleotide 1 to nucleotide 21). The combination of these three oligonucleotides detects only SMN1 or SMN2 minigenes (RT-qPCR) and will not detect endogenous SMN1 or SMN2 genes.
The SMN forward and reverse primers are used at final concentrations of 0.4 μM. The SMN probe is used at a final concentration of 0.15 μM. The GAPDH primers are used at final concentrations of 0.2 μM and the probe at 0.15 μM.
The SMN2-minigene GAPDH mix (15 μL total volume) is prepared by combining 7.5 μL of 2×RT-PCR buffer, 0.4 μL of 25×RT-PCR enzyme mix, 0.75 μL of 20×GAPDH primer-probe mix, 4.0075 μL of water, 2 μL of 10-fold diluted cell lysate, 0.06 μL of 100 μM SMN forward primer, 0.06 μL of 100 μM SMN reverse primer, and 0.225 μL of 100 μM SMN probe.
PCR is carried out at the following temperatures for the indicated time: Step 1: 48° C. (15 min); Step 2: 95° C. (10 min); Step 3: 95° C. (15 sec); Step 4: 60° C. (1 min); then repeat Steps 3 and 4 for a total of 40 cycles.
Each reaction mixture contains both SMN2-A minigene and GAPDH primers/probe sets (multiplex design), allowing simultaneous measurement of the levels of two transcripts.
The increase in the abundance of the FL SMN2mini mRNA relative to that in cells treated with vehicle control is determined from real-time PCR data using a modified ΔΔCt method (as described in Livak and Schmittgen, Methods, 2001, 25:402-8). The amplification efficiency E is calculated from the slope of the amplification curve for FL SMN2mini and GAPDH individually. The abundance of FL SMN2mini and GAPDH mRNA are then calculated as (1+E)^−Ct, where Ct is the threshold value for each amplicon. The abundance of FL SMN2mini mRNA is normalized to GAPDH mRNA abundance. The normalized FL SMN2mini mRNA abundance from test compound-treated samples is then divided by normalized FL SMN2mini mRNA abundance from vehicle-treated cells to determine the level of FL SMN2mini mRNA relative to vehicle control.
Table 2 provides EC1.5x concentrations for production of full length SMN2 minigene mRNA that was obtained from the 7-point concentration data generated according to the above procedure for particular compounds of the present invention.

SMILES | EC1.5x SMN protein (EC1.5x concentration for SMN protein expression) (SMN protein) | max. fold increase (maximum fold increase of SMN protein) (SMN protein) | EC (1.5-fold) [1]
Cc1cn2cc(NC(=O)c3ccc(N4CCNC(C)C4)cc3F)cc(Cl)c2n1 (racemic) [Example 54, rac-N-(8-chloro-2-methylimidazo-[1,2-a]pyridin-6-yl)-2-fluoro-4-(3-methylpiperazin-1-yl)benzamide dihydrochloride] | 0.056 µM | 1.8217 | 0.0128 µM
Cc1cn2cc(NC(=O)c3ccc(N4CCNC(C)C4)cc3F)c(C)cc2n1 (racemic) [Example 52, rac-N-(2,7-dimethyl-imidazo[1,2-a]-pyridin-6-yl)-2-fluoro-4-(3-methyl-piperazin-1-yl)-benzamide dihydrochloride] | 0.1518 µM | 1.8152 | 0.04 µM
Cc1nc2c(F)cc(NC(=O)c3ccc(N4CCNCC4)cc3)cc2o1 [Example 28, N-(4-fluoro-2-methylbenzo[d]-oxazol-6-yl)-4-(piperazin-1-yl)benzamide] | 0.2868 µM | 1.7291 | 0.252 µM
Cc1nc2c(F)cc(NC(=O)c3ccc(N4CC(C)NC(C)C4)nc3)cc2o1 (stereo not drawn) [Example 23, 6-(3,5-dimethyl-piperazin-1-yl)-N-(4-fluoro-2-methylbenzo[d]-oxazol-6-yl)-nicotinamide] | 0.5092 µM | 1.6942 | 0.201 µM
CCOc1nc(N2CCNCC2)ccc1C(=O)Nc1cc(F)c2nc(C)cn2c1 [Example 72, 2-ethoxy-N-(8-fluoro-2-methylimidazo[1,2-a]pyridin-6-yl)-6-(piperazin-1-yl)-nicotinamide] | 0.1324 µM | 1.7095 | 0.015 µM
Cc1cn2cc(NC(=O)c3ccc(N4C[C@H]5CNC[C@H]5C4)nc3)ccc2n1 [Example 15, 6-hexahydro-pyrrolo[3,4-c]-pyrrol-2(1H)-yl)-N-(2-methyl-imidazo[1,2-a]-pyridin-6-yl)-nicotinamide hydrochloride] | 0.281 µM | 1.6859 | 0.254 µM
Cc1cn2cc(NC(=O)c3ccc(C4CCNCC4)cc3F)cc(F)c2n1.Cl [Example 81, 2-fluoro-N-(8-fluoro-2-methylimidazo[1,2-a]pyridin-6-yl)-4-(piperidin-4-yl)benzamide hydrochloride] | 0.2723 µM | 1.6719 | 0.0374 µM
Cc1cn2cc(NC(=O)c3ccc(N4CC(C)NC(C)C4)nc3)cc(C(F)(F)F)c2n1 (stereo not drawn) [Example 22, 6-(3,5-dimethyl-piperazin-1-yl)-N-(2-methyl-8-(trifluoromethyl)-imidazo[1,2-a]-pyridin-6-yl)-nicotinamide] | 0.4468 µM | 1.7566 | 0.263 µM
Cc1cn2cc(NC(=O)c3ccc(N4CCN[C@@H](C)C4)cc3F)cc(F)c2n1 [Example 50, (S)-2-fluoro-N-(8-fluoro-2-methyl-imidazo[1,2-a]-pyridin-6-yl)-4-(3-methylpiperazin-1-yl)benzamide hydrochloride] | 0.0344 µM | 1.6607 | 0.0068 µM
Cc1cn2cc(NC(=O)c3ccc(N4CCNCC4)nc3F)cc(F)c2n1 [Example 65, 2-fIuoro-N-(8-fluoro-2-methylimidazo[1,2-a]pyridin-6-yl)-6-(piperazin-1-yl)-nicotinamide] | 0.1135 µM | 1.7675 | 0.0762 µM
Cc1nc2c(F)cc(NC(=O)c3ccc(N4CCNCC4)cc3F)cc2o1 [Example 58, 2-fluoro-N-(4-fluoro-2-methyl-benzo[d]oxazol-6-yl)-4-(piperazin-1-yl)benzamide] | 0.1159 µM | 1.7744 | 0.0398 µM
Cc1nc2c(F)cc(NC(=O)c3ccc(N4CCNC(C)C4)cc3)cc2o1 (racemic) [Example 29, rac-N-(4-fluoro-2-methylbenzo[d]-oxazol-6-yl)-4-(3-methylpiperazin-1-yl)benzamide] | 0.4618 µM | 1.632 | 0.267 µM
Cc1cn2cc(NC(=O)c3ccc(N4CCNCC4)cc3)cc(F)c2n1.Cl [Example 36, N-(8-fluoro-2-methylimidazo[1,2-a]pyridin-6-yl)-4-(piperazin-1-yl)benzamide hydrochloride] | 0.1094 µM | 1.7018 | 0.0278 µM
Cc1cn2cc(NC(=O)c3ccc(N4CCNC(C)C4)cc3F)ccc2n1 (racemic) [Example 18, rac-2-fluoro-N-(2 methylimidazo-[1,2-a]pyridin-6-yl)-4(3-methyl-piperazin-1-yl)-benzamide] | 0.1346 µM | 1.7677 | 0.0523 µM
